Each compound was assayed on Key Broadleaf Weed and Crop Species (assay: Post-Emergent Test II (Table 5)). Conditions: Abutilon theophrasti, post-emergence, 336 h, ABUTH: velvetleaf (Abutilon theophrasti), application rate 70 (kg ai/ha; footnote: g ai/ha), read-out: Visual Growth Reduction (%) 14 Days After Application ABUTH.
Format: in vivo
How it was run: (§1)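 Growth stage at treatment: first or second true leaf. Application: compound in acetone/DMSO diluted into an adjuvant-containing aqueous mix, sprayed at 187 L/ha at several rates. Assessment: visual 0-100% injury at 14 days against untreated plants.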
Nc1cc(-c2ccc(Cl)c(Cl)c2Cl)nc(C(=O)O)c1Cl [Compound 93] showed a pest or weed control at 70 g/ha of 85 to 94%.

Same assay, conditions: Abutilon theophrasti, post-emergence, 336 h, ABUTH: velvetleaf (Abutilon theophrasti), application rate 140 (kg ai/ha; footnote: g ai/ha), read-out: Visual Growth Reduction (%) 14 Days After Application ABUTH
For Nc1cc(-c2ccc(Cl)c(Cl)c2Cl)nc(C(=O)O)c1Cl [Compound 93], the pest or weed control at 140 g/ha was 85 to 94%.

Same assay, conditions: Amaranthus retroflexus, post-emergence, 336 h, AMARE: redroot pigweed (Amaranthus retroflexus), application rate 70 (kg ai/ha; footnote: g ai/ha), read-out: Visual Growth Reduction (%) 14 Days After Application AMARE
Work on Nc1cc(-c2ccc(Cl)c(Cl)c2Cl)nc(C(=O)O)c1Cl [Compound 93] yielded a pest or weed control at 70 g/ha of 95 to 100%.

Same assay, conditions: Amaranthus retroflexus, post-emergence, 336 h, AMARE: redroot pigweed (Amaranthus retroflexus), application rate 140 (kg ai/ha; footnote: g ai/ha), read-out: Visual Growth Reduction (%) 14 Days After Application AMARE
Nc1cc(-c2ccc(Cl)c(Cl)c2Cl)nc(C(=O)O)c1Cl [Compound 93] gave a pest or weed control at 140 g/ha of 95 to 100%.

Same assay, conditions: Brassica napus, post-emergence, 336 h, BRSSS: oilseed rape, canola (Brassica napus), application rate 70 (kg ai/ha; footnote: g ai/ha), read-out: Visual Growth Reduction (%) 14 Days After Application BRSSS
Nc1cc(-c2ccc(Cl)c(Cl)c2Cl)nc(C(=O)O)c1Cl [Compound 93] showed a pest or weed control at 70 g/ha of 95 to 100%.

Same assay, conditions: Brassica napus, post-emergence, 336 h, BRSSS: oilseed rape, canola (Brassica napus), application rate 140 (kg ai/ha; footnote: g ai/ha), read-out: Visual Growth Reduction (%) 14 Days After Application BRSSS
In the case of Nc1cc(-c2ccc(Cl)c(Cl)c2Cl)nc(C(=O)O)c1Cl [Compound 93], the pest or weed control at 140 g/ha is reported as 95 to 100%.

Same assay, conditions: Chenopodium album, post-emergence, 336 h, CHEAL: lambsquarters (Chenopodium album), application rate 70 (kg ai/ha; footnote: g ai/ha), read-out: Visual Growth Reduction (%) 14 Days After Application CHEAL
Compound Nc1cc(-c2ccc(Cl)c(Cl)c2Cl)nc(C(=O)O)c1Cl [Compound 93] has a pest or weed control at 70 g/ha of 85 to 94%.

Same assay, conditions: Chenopodium album, post-emergence, 336 h, CHEAL: lambsquarters (Chenopodium album), application rate 140 (kg ai/ha; footnote: g ai/ha), read-out: Visual Growth Reduction (%) 14 Days After Application CHEAL
Nc1cc(-c2ccc(Cl)c(Cl)c2Cl)nc(C(=O)O)c1Cl [Compound 93] gave a pest or weed control at 140 g/ha of 95 to 100%.

Same assay, conditions: Euphorbia heterophylla, post-emergence, 336 h, EPHHL: wild poinsettia (Euphorbia heterophylla), application rate 70 (kg ai/ha; footnote: g ai/ha), read-out: Visual Growth Reduction (%) 14 Days After Application EPHHL
Work on Nc1cc(-c2ccc(Cl)c(Cl)c2Cl)nc(C(=O)O)c1Cl [Compound 93] yielded a pest or weed control at 70 g/ha of 95 to 100%.

Same assay, conditions: Euphorbia heterophylla, post-emergence, 336 h, EPHHL: wild poinsettia (Euphorbia heterophylla), application rate 140 (kg ai/ha; footnote: g ai/ha), read-out: Visual Growth Reduction (%) 14 Days After Application EPHHL
Nc1cc(-c2ccc(Cl)c(Cl)c2Cl)nc(C(=O)O)c1Cl [Compound 93] gave a pest or weed control at 140 g/ha of 95 to 100%.

Same assay, conditions: Helianthus annuus, post-emergence, 336 h, HELAN: sunflower (Helianthus annuus), application rate 70 (kg ai/ha; footnote: g ai/ha), read-out: Visual Growth Reduction (%) 14 Days After Application HELAN
Nc1cc(-c2ccc(Cl)c(Cl)c2Cl)nc(C(=O)O)c1Cl [Compound 93] showed a pest or weed control at 70 g/ha of 60 to 74%.

Same assay, conditions: Helianthus annuus, post-emergence, 336 h, HELAN: sunflower (Helianthus annuus), application rate 140 (kg ai/ha; footnote: g ai/ha), read-out: Visual Growth Reduction (%) 14 Days After Application HELAN
Work on Nc1cc(-c2ccc(Cl)c(Cl)c2Cl)nc(C(=O)O)c1Cl [Compound 93] yielded a pest or weed control at 140 g/ha of 75 to 84%.

Same assay, conditions: Viola tricolor, post-emergence, 336 h, VIOTR: wild pansy (Viola tricolor), application rate 70 (kg ai/ha; footnote: g ai/ha), read-out: Visual Growth Reduction (%) 14 Days After Application VIOTR
In the case of Nc1cc(-c2ccc(Cl)c(Cl)c2Cl)nc(C(=O)O)c1Cl [Compound 93], the pest or weed control at 70 g/ha is reported as 60 to 74%.

Same assay, conditions: Viola tricolor, post-emergence, 336 h, VIOTR: wild pansy (Viola tricolor), application rate 140 (kg ai/ha; footnote: g ai/ha), read-out: Visual Growth Reduction (%) 14 Days After Application VIOTR
Nc1cc(-c2ccc(Cl)c(Cl)c2Cl)nc(C(=O)O)c1Cl [Compound 93] showed a pest or weed control at 140 g/ha of 0 to 29%.

Each compound was assayed on Key Grass and Sedge Weeds as well as Grass Crops (assay: Post-Emergent Test II (Table 6)). Conditions: post-emergence, 336 h, CYPSS, 70 g ai/ha, 14 days after application, read-out: Visual Growth Reduction (%) 14 Days After Application CYPSS.
Format: in vivo
How it was run: as §1
Nc1cc(-c2ccc(Cl)c(Cl)c2Cl)nc(C(=O)O)c1Cl [Compound 93] was tested, and the pest or weed control at 70 g/ha was 0 to 29%.

Same assay, conditions: post-emergence, 336 h, CYPSS, 140 g ai/ha, 14 days after application, read-out: Visual Growth Reduction (%) 14 Days After Application CYPSS
Compound Nc1cc(-c2ccc(Cl)c(Cl)c2Cl)nc(C(=O)O)c1Cl [Compound 93] has a pest or weed control at 140 g/ha of 0 to 29%.

Same assay, conditions: post-emergence, 336 h, DIGSA: crabgrass (Digitaria sanguinalis), 70 g ai/ha, 14 days after application, read-out: Visual Growth Reduction (%) 14 Days After Application DIGSA
Compound Nc1cc(-c2ccc(Cl)c(Cl)c2Cl)nc(C(=O)O)c1Cl [Compound 93] has a pest or weed control at 70 g/ha of 60 to 74%.

Same assay, conditions: post-emergence, 336 h, DIGSA: crabgrass (Digitaria sanguinalis), 140 g ai/ha, 14 days after application, read-out: Visual Growth Reduction (%) 14 Days After Application DIGSA
With Nc1cc(-c2ccc(Cl)c(Cl)c2Cl)nc(C(=O)O)c1Cl [Compound 93] the pest or weed control at 140 g/ha was 60 to 74%.

Same assay, conditions: post-emergence, 336 h, ECHSS, 70 g ai/ha, 14 days after application, read-out: Visual Growth Reduction (%) 14 Days After Application ECHSS
Work on Nc1cc(-c2ccc(Cl)c(Cl)c2Cl)nc(C(=O)O)c1Cl [Compound 93] yielded a pest or weed control at 70 g/ha of 30 to 44%.

Same assay, conditions: post-emergence, 336 h, ECHSS, 140 g ai/ha, 14 days after application, read-out: Visual Growth Reduction (%) 14 Days After Application ECHSS
Work on Nc1cc(-c2ccc(Cl)c(Cl)c2Cl)nc(C(=O)O)c1Cl [Compound 93] yielded a pest or weed control at 140 g/ha of 30 to 44%.

Same assay, conditions: post-emergence, 336 h, ORYSS (crop), 70 g ai/ha, 14 days after application, read-out: Visual Growth Reduction (%) 14 Days After Application ORYSS
For Nc1cc(-c2ccc(Cl)c(Cl)c2Cl)nc(C(=O)O)c1Cl [Compound 93], the pest or weed control at 70 g/ha was 0 to 29%.

Same assay, conditions: post-emergence, 336 h, ORYSS (crop), 140 g ai/ha, 14 days after application, read-out: Visual Growth Reduction (%) 14 Days After Application ORYSS
With Nc1cc(-c2ccc(Cl)c(Cl)c2Cl)nc(C(=O)O)c1Cl [Compound 93] the pest or weed control at 140 g/ha was 0 to 29%.

Same assay, conditions: post-emergence, 336 h, SETFA: giant foxtail (Setaria faberi), 70 g ai/ha, 14 days after application, read-out: Visual Growth Reduction (%) 14 Days After Application SETFA
In the case of Nc1cc(-c2ccc(Cl)c(Cl)c2Cl)nc(C(=O)O)c1Cl [Compound 93], the pest or weed control at 70 g/ha is reported as 0 to 29%.

Same assay, conditions: post-emergence, 336 h, SETFA: giant foxtail (Setaria faberi), 140 g ai/ha, 14 days after application, read-out: Visual Growth Reduction (%) 14 Days After Application SETFA
Work on Nc1cc(-c2ccc(Cl)c(Cl)c2Cl)nc(C(=O)O)c1Cl [Compound 93] yielded a pest or weed control at 140 g/ha of 0 to 29%.

Same assay, conditions: post-emergence, 336 h, SORVU: grain sorghum (Sorghum vulgare), 70 g ai/ha, 14 days after application, read-out: Visual Growth Reduction (%) 14 Days After Application SORVU
Nc1cc(-c2ccc(Cl)c(Cl)c2Cl)nc(C(=O)O)c1Cl [Compound 93] was tested, and the pest or weed control at 70 g/ha was 0 to 29%.

Same assay, conditions: post-emergence, 336 h, SORVU: grain sorghum (Sorghum vulgare), 140 g ai/ha, 14 days after application, read-out: Visual Growth Reduction (%) 14 Days After Application SORVU
For Nc1cc(-c2ccc(Cl)c(Cl)c2Cl)nc(C(=O)O)c1Cl [Compound 93], the pest or weed control at 140 g/ha was 0 to 29%.

Same assay, conditions: post-emergence, 336 h, TRZSS (crop), 70 g ai/ha, 14 days after application, read-out: Visual Growth Reduction (%) 14 Days After Application TRZSS
In the case of Nc1cc(-c2ccc(Cl)c(Cl)c2Cl)nc(C(=O)O)c1Cl [Compound 93], the pest or weed control at 70 g/ha is reported as 45 to 59%.

Same assay, conditions: post-emergence, 336 h, TRZSS (crop), 140 g ai/ha, 14 days after application, read-out: Visual Growth Reduction (%) 14 Days After Application TRZSS
Nc1cc(-c2ccc(Cl)c(Cl)c2Cl)nc(C(=O)O)c1Cl [Compound 93] showed a pest or weed control at 140 g/ha of 60 to 74%.

Same assay, conditions: post-emergence, 336 h, ZEAMX: maize, corn (Zea mays), 70 g ai/ha, 14 days after application, read-out: Visual Growth Reduction (%) 14 Days After Application ZEAMX
With Nc1cc(-c2ccc(Cl)c(Cl)c2Cl)nc(C(=O)O)c1Cl [Compound 93] the pest or weed control at 70 g/ha was 30 to 44%.

Same assay, conditions: post-emergence, 336 h, ZEAMX: maize, corn (Zea mays), 140 g ai/ha, 14 days after application, read-out: Visual Growth Reduction (%) 14 Days After Application ZEAMX
With Nc1cc(-c2ccc(Cl)c(Cl)c2Cl)nc(C(=O)O)c1Cl [Compound 93] the pest or weed control at 140 g/ha was 30 to 44%.
